Measurements published in patent publication US11013224B2, “Substance and composition for veterinary purpose” (priority 2016, dated 2021).
Where two headings read alike, the source gives them in different places.

Key:
[1] = tested on: hoof; experiment: Application of cromoglycate using limb perfusion in healthy horses; type: in vivo
Method: Standard blood analysis was carried out before and after treatment. Hoof quality and growth were determined over a period of time as described above.

[2] = tested on: hoof
Method: Routine equine intravenous fluid therapy was carried out twice per week for 4 weeks. Standard blood analysis was carried out on Abbott i-STAT systems, Abbott Architect ci8200 and Architect Celldyn CD3700 before and after treatment. Micro-circulation was measured during treatment using PeriFlux System 5000. Hoof quality and growth were determined as described above.

[3] = tested on: hoof; experiment: Application of cromoglycate using inhalation in horses; type: in vivo
Method: Gas mix system and the Air-ONE nebuliser were prepared and operated as per manufacturer's instructions. […] Treatment was continued until all 70 ml had been inhaled (between 20 to 30 minutes). Horses were treated at 2 day intervals for at least 1 and up to 3 weeks. […] Micro-circulation was measured during inhalation using PeriFlux System 5000. Hoof quality and growth were determined as described above.

[4] = limb perfusion, 35 ml of 71 g/L per front limb

For `O=C(O)c1cc(=O)c2c(OCC(O)COc3cccc4oc(C(=O)O)cc(=O)c34)cccc2o1` [sodium cromoglycate], the “Heart rate, temperature and gut sounds” value ([1]; 24 h after injection) was “normal”, the “Hoof growth and hoof quality” value ([1]; limb perfusion) was “increases hoof growth and improves hoof quality” and the “Ionized calcium, pre vs post treatment blood data” value [1, 4] was “a change”. For the same molecule, the “Potassium, pre vs post treatment blood data” value [1, 4] was “a reduction”, the “Hoof growth and hoof quality” value ([2]; intravenous fluid) was “increases hoof growth and improves hoof quality” and the “Digestion, coat and hoof quality” value ([2]; intravenous fluid infusion) was “improves”. For the same molecule, the Calcium upon treatment ([2]; intravenous fluid therapy) was “effected”, the “Tolerability of repeated inhalation” value ([3]; 70 ml of 70 g/l per horse by nebuliser, 2 day intervals, 1 to 3 weeks) was “well tolerated” and the Calcium upon treatment ([3]; inhalation) was “effected”. The “Digestion, coat and hoof quality” value ([3]; inhalation) was “improves”, the “Hoof growth and hoof quality” value ([3]; inhalation) was “increases hoof growth and improves hoof quality” and the Micro-circulation ([3]; measured during inhalation, PeriFlux System 5000) was “activates”.
